By MIC is commonly meant the smallest concentration in the dilution series that meets the test's criterion for growth inhibition.

The record followed here is ChEMBL document CHEMBL5584260, “Identification of coumarin - benzimidazole hybrids as potential antibacterial agents: Synthesis, in vitro and in vivo biological assessment, and ADMET prediction” (Bioorg Med Chem Lett, 2024).

≈ marks a conversion by molar mass, not a printed value. Where only a bound is given, the exact number is not on record here.

In data set [1] the test system is THP-1. The data set can be described thus: Cytotoxicity against human THP-1 cells assessed as cell death at 50 uM incubated for 24 hrs by LDH assay (reference value: 0.00 +/- 0.56 %). The note with it: thp-1, 24 h. The class given is toxicity, cell-based.
Data set [2] has as its system Klebsiella pneumoniae. The data set can be described thus: Antimicrobial activity against Klebsiella pneumoniae ATCC 27736 infected in neutropenic thigh infection BALB/c mouse model assessed as log reduction in bacterial count in thigh at 50 mg/kg pre-infected with bacteria for 3 to 6 hrs followed by compound administration and measured 36 hrs post infection. The class given is functional. Conditions: time 30-33 hrs.

Data set [3] concerns Klebsiella pneumoniae. The data set can be described thus: Antibacterial activity against Klebsiella pneumoniae ATCC 27736 assessed as inhibition of bacterial growth by CLSI protocol based microtiter broth dilution method. The class given is functional. In general terms: Broth dilution looks for growth in wells or tubes with falling amounts of substance.
Data set [4] in a line: (§1) Cytotoxicity against human THP-1 cells assessed as cell survival at 100 uM incubated for 24 hrs by MTT assay (reference value: 100.0 +/- 5.24 %). Conditions: THP-1 cells, read-out: Activity. The class given is toxicity, cell-based. (Formazan colour is commonly taken as a measure of viable cells.)
The test system of the next data set is Acinetobacter baumannii. The data set can be described thus: Antibacterial activity against Acinetobacter baumannii BAA-16051 assessed as inhibition of bacterial growth by CLSI protocol based microtiter broth dilution method. The class given is functional.
Data set [5] relates to THP-1. The data set can be described thus: Cytotoxicity against human THP-1 cells assessed as cell death at 100 uM incubated for 24 hrs by LDH assay (reference value: 0.00 +/- 0.56 %). The class given is toxicity, cell-based. The note with it: thp-1, 24 h.
A short description of data set [6]: (§2) Cytotoxicity against human THP-1 cells assessed as cell survival at 50 uM incubated for 24 hrs by MTT assay (reference value: 100.0 +/- 5.24 %). The class given is toxicity, cell-based. The note with it: THP-1 cells, read-out: Activity.
Data set [7] deals with Pseudomonas aeruginosa. Kind of data set: Antibacterial activity against Pseudomonas aeruginosa ATCC 27853 assessed as inhibition of bacterial growth by CLSI protocol based microtiter broth dilution method. The class given is functional.
Data set [8] has as its system Bacillus subtilis. Kind of data set: Antibacterial activity against Bacillus subtilis incubated for 24 hrs by serial broth dilution method. The class given is functional.
The test system of data set [9] is Staphylococcus aureus. Kind of data set: Antibacterial activity against Staphylococcus aureus incubated for 24 hrs by serial broth dilution method. The class given is functional.
In data set [10] the test system is Escherichia coli. The data set can be described thus: Antibacterial activity against Escherichia coli incubated for 24 hrs by serial broth dilution method. The class given is functional.
The test system of data set [11] is Pseudomonas aeruginosa. Kind of data set: Antibacterial activity against Pseudomonas aeruginosa incubated for 24 hrs by serial broth dilution method. The class given is functional.
In data set [12] the test system is THP-1. Described as §1. The class given is toxicity, cell-based. The note with it: thp-1, 24 h, 100 µM.
Data set [13] concerns THP-1. The data set is described as §2. The class given is toxicity, cell-based. The note with it: thp-1, 24 h, 50 µM.
In data set [14] the test system is Escherichia coli. The data set can be described thus: Antibacterial activity against Escherichia coli incubated for 16 hrs by CLSI protocol based microtiter broth dilution method. The class given is functional.
The test system of data set [15] is Bacillus subtilis. The data set can be described thus: Antibacterial activity against Bacillus subtilis incubated for 16 hrs by CLSI protocol based microtiter broth dilution method. The class given is functional.
Data set [16] deals with Staphylococcus aureus. The data set can be described thus: Antibacterial activity against Staphylococcus aureus incubated for 16 hrs by CLSI protocol based microtiter broth dilution method. The class given is functional.
Data set [17] relates to Pseudomonas aeruginosa. Kind of data set: Antibacterial activity against Pseudomonas aeruginosa incubated for 16 hrs by CLSI protocol based microtiter broth dilution method. The class given is functional.

On to `Cc1ccc(-n2c(-c3cc4ccccc4oc3=O)nc3ccccc32)cc1`, for which the values for the Activity with THP-1 [1] and in the data set on THP-1 [5] were 11.25% and 16.88%, respectively. Besides, in the data set on Klebsiella pneumoniae [2], the “log(activity)” value is on record as greater than 2. The MIC with Klebsiella pneumoniae [3] is 6.25 µg/mL (≈ 17.7 µM); with Acinetobacter baumannii, greater than 100 µg/mL; in the data set on Pseudomonas aeruginosa [7] it was greater than 100 µg/mL. Also, the viability at 24 h, 100 µM in data set [4] was determined as 27.3%. In addition, in [6], the viability at 24 h, 50 µM is 94.1%.

Take `O=C(CC(Sc1nc2ccccc2[nH]1)c1ccccc1)c1cc2ccccc2oc1=O` (configuration not stated): the MIC with Bacillus subtilis [8] stood at 2300 µg/mL (≈ 5390 µM); against Staphylococcus aureus [9], 2400 µg/mL (≈ 5630 µM); in the data set with Escherichia coli [10], 2100 µg/mL (≈ 4920 µM); against Pseudomonas aeruginosa [11] it was 2200 µg/mL (≈ 5160 µM).

Consider `CCCCn1c(-c2cc3ccccc3oc2=O)nc2ccccc21`, for which the figures for the Activity in the data set on THP-1 [1] and with THP-1 [5] were 8.01% and 11.43%, respectively. Besides, the “log(activity)” value with Klebsiella pneumoniae [2] was greater than 2. Besides, the MIC was 6.25 µg/mL (≈ 19.6 µM) in the data set with Klebsiella pneumoniae [3], greater than 100 µg/mL in the data set with Acinetobacter baumannii and greater than 100 µg/mL in the data set with Pseudomonas aeruginosa [7]. Besides, the viability at 24 h, 100 µM in [4] came out at 27.7%. In addition, the viability at 24 h, 50 µM in [6] worked out at 89.7%.

Regarding `O=c1oc2ccc(Cl)cc2cc1-c1nc2ccccc2[nH]1`, the MIC in the data set with Klebsiella pneumoniae [3], in the data set on Acinetobacter baumannii and with Pseudomonas aeruginosa [7] was greater than 100 µg/mL each time.

For `O=c1oc2ccc(Br)cc2cc1-c1nc2ccccc2[nH]1`, the MIC with Klebsiella pneumoniae [3], with Acinetobacter baumannii and with Pseudomonas aeruginosa [7] was greater than 100 µg/mL each time.

Take `O=c1oc2ccccc2cc1-c1nc2ccccc2n1-c1ccc(Cl)cc1`: the MIC in the data set with Klebsiella pneumoniae [3], with Acinetobacter baumannii and with Pseudomonas aeruginosa [7] was greater than 100 µg/mL in each case.

Turning to `O=c1oc2ccc(Cl)cc2cc1-c1nc2ccccc2n1-c1ccc(Br)cc1`, the MIC with Klebsiella pneumoniae [3], in the data set on Acinetobacter baumannii and in the data set with Pseudomonas aeruginosa [7] was greater than 100 µg/mL throughout.

On to `O=c1oc2ccccc2c(O)c1C(Sc1nc2ccccc2[nH]1)c1ccc(O)cc1` (configuration not stated), for which the minimal inhibitory concentration (MIC) in the data set with Bacillus subtilis [8] and with Escherichia coli [10] was 250 µg/mL (≈ 600 µM) each time.

On to `O=c1oc2ccc(Br)cc2cc1-c1nc2ccccc2n1-c1ccc(Br)cc1`, for which the minimum inhibitory concentration (MIC) in the data set on Klebsiella pneumoniae [3], in the data set with Acinetobacter baumannii and in the data set with Pseudomonas aeruginosa [7] was greater than 100 µg/mL throughout.

Turning to POLYMYXIN B [listing 1 of 2 here], the Activity in the data set with THP-1 [1] is recorded as 19.64%; in the data set with THP-1 [12], 54.94%; with THP-1 [5], 30.59%; with THP-1 [13], 72.77%.

With `CN[C@H](CC(C)C)C(=O)N[C@H]1C(=O)N[C@@H](CC(N)=O)C(=O)N[C@H]2C(=O)N[C@H]3C(=O)N[C@H](C(=O)N[C@H](C(=O)O)c4cc(O)cc(O)c4-c4cc3ccc4O)[C@H](O)c3ccc(c(Cl)c3)Oc3cc2cc(c3O[C@@H]2O[C@H](CO)[C@@H](O)[C@H](O)[C@H]2O[C@H]2C[C@](C)(N)[C@H](O)[C@H](C)O2)Oc2ccc(cc2Cl)[C@H]1O` [VANCOMYCIN], the results for the Activity in the data set with THP-1 [1] and in the data set on THP-1 [5] were 6.99% and 13.88%, respectively. Further, the MIC with Klebsiella pneumoniae [3] was greater than 50 µg/mL; in the data set with Acinetobacter baumannii it was 12.5 µg/mL (≈ 8.63 µM); with Pseudomonas aeruginosa [7] it was greater than 50 µg/mL. Moreover, in [4], the viability at 24 h, 100 µM worked out at 65.9%. Moreover, the viability at 24 h, 50 µM in data set [6] amounted to 66.1%.

As to `O=c1oc2ccc(Cl)cc2cc1-c1nc2ccccc2n1-c1ccccc1`, the MIC in the data set on Klebsiella pneumoniae [3], in the data set on Acinetobacter baumannii and in the data set on Pseudomonas aeruginosa [7] was greater than 100 µg/mL each time.

Take `O=c1oc2ccc(Cl)cc2cc1-c1nc2ccccc2n1-c1ccc(Cl)cc1`: the MIC with Klebsiella pneumoniae [3], in the data set with Acinetobacter baumannii and with Pseudomonas aeruginosa [7] was greater than 100 µg/mL throughout.

With `O=c1oc2ccc(Br)cc2cc1-c1nc2ccccc2n1-c1ccccc1`, the MIC in the data set with Klebsiella pneumoniae [3], in the data set with Acinetobacter baumannii and in the data set on Pseudomonas aeruginosa [7] was greater than 100 µg/mL in each case.

Take `O=c1oc2ccccc2cc1-c1nc2ccccc2n1-c1ccccc1`: the minimal inhibitory concentration (MIC) in the data set with Klebsiella pneumoniae [3], in the data set on Acinetobacter baumannii and with Pseudomonas aeruginosa [7] was greater than 100 µg/mL throughout.

Regarding `O=c1oc2ccc(Br)cc2cc1-c1nc2ccccc2n1-c1ccc(Cl)cc1`, the minimal inhibitory concentration (MIC) in the data set with Klebsiella pneumoniae [3], with Acinetobacter baumannii and in the data set with Pseudomonas aeruginosa [7] was greater than 100 µg/mL in each case.

As for `O=c1oc2ccccc2cc1/C(Cn1cnc2ccccc21)=N\Oc1ccc(Cl)cc1`, the minimal inhibitory concentration (MIC) with Escherichia coli [14] came out at 3.12 µg/mL (≈ 7.26 µM); in the data set with Bacillus subtilis [15] it was 0.95 µg/mL (≈ 2.21 µM); against Staphylococcus aureus [16], 1.56 µg/mL (≈ 3.63 µM); with Pseudomonas aeruginosa [17], 3.12 µg/mL (≈ 7.26 µM).

As for `Cc1ccc(-n2c(-c3cc4cc(Cl)ccc4oc3=O)nc3ccccc32)cc1`, the MIC in the data set with Klebsiella pneumoniae [3], in the data set with Acinetobacter baumannii and in the data set on Pseudomonas aeruginosa [7] was greater than 100 µg/mL in each case.

For `O=c1oc2ccccc2cc1-c1nc2ccccc2n1-c1ccc(Br)cc1`, the MIC with Klebsiella pneumoniae [3], in the data set on Acinetobacter baumannii and in the data set on Pseudomonas aeruginosa [7] was greater than 100 µg/mL throughout.

POLYMYXIN B [listing 2 of 2 here]: the MIC with Klebsiella pneumoniae [3] was 1.25 µg/mL; in the data set with Acinetobacter baumannii, 3.12 µg/mL; in the data set on Pseudomonas aeruginosa [7] it was 1.25 µg/mL.

On to `Cc1ccc(-n2c(-c3cc4cc(Br)ccc4oc3=O)nc3ccccc32)cc1`, for which the minimum inhibitory concentration (MIC) in the data set on Klebsiella pneumoniae [3], in the data set with Acinetobacter baumannii and in the data set on Pseudomonas aeruginosa [7] was greater than 100 µg/mL throughout.

For `C[C@@H](O)[C@H]1C(=O)N2C(C(=O)O)=C(S[C@@H]3CN[C@H](C(=O)N(C)C)C3)[C@H](C)[C@H]12` [MEROPENEM], the MIC is 0.78 µg/mL (≈ 2.03 µM) in the data set with Klebsiella pneumoniae [3], greater than 50 µg/mL with Acinetobacter baumannii and 6.25 µg/mL (≈ 16.3 µM) in the data set on Pseudomonas aeruginosa [7].
